From patent publication US20200038478A1, “POLYPEPTIDE AND COMPOSITION THEREOF FOR TREATING DISEASES OF METABOLIC SYSTEM” (WUHAN GRECTECH CO., LTD., priority 2017, published 2020)
Bridge positions count the residues as written; N and C are the ends. Ends that are not written are not given here.

Key:
normal mice [1] = assay: Hypoglycemic effect on normal mice after subcutaneous injection (Example 6); format: in vivo, Kunming white mice; conditions: for Blood glucose level at 15 min after administration / Blood glucose level at 30 min after administration / Blood glucose level prior to administration: 1 mg/mL at 0.05 ml/10 g, single subcutaneous injection on the back; for Blood glucose level prior to administration: baseline
normal mice [2] = assay: Hypoglycemic effect of synthetic polypeptides on normal mice after subcutaneous injection (Example 9); format: in vivo, Kunming white mice; conditions: 1 mg/mL at 0.05 ml/10 g, single subcutaneous injection on the back
normal mice [3] = assay: Polypeptide vs insulin on normal mice after tail vein injection (Example 10); format: in vivo, Kunming white mice; conditions: single tail vein injection, polypeptide 2 mg/mL at 0.05 ml/10 g (10 mg/kg), insulin 0.5 U/mL (2.5 U/kg)
[4] = test system: mouse models of type 2 diabetes; assay: Polypeptide mixture vs insulin, mouse models of type 2 diabetes, intramuscular injection (Example 15); conditions: KK mice, single intramuscular injection in the lateral thigh, polypeptide 2 mg/mL, insulin 0.5 U/mL, each 0.05 ml/10 g
[5] = test system: mouse models of type 2 diabetes; assay: Polypeptide mixture vs insulin, mouse models of type 2 diabetes, subcutaneous injection (Example 14); conditions: KK mice, single subcutaneous injection on the back, polypeptide 2 mg/mL, insulin 0.5 U/mL, each 0.05 ml/10 g
[6] = test system: mouse models of type 2 diabetes; assay: Polypeptide mixture vs insulin, mouse models of type 2 diabetes, tail vein injection (Example 13); conditions: KK mice, single tail vein injection, polypeptide 2 mg/mL, insulin 0.5 U/mL, each 0.05 ml/10 g
pepsin = biological target: T1, pepsin (Sus scrofa, UniProt P00791); assay: Stability against pepsin in simulated gastric fluid, HPLC (Example 16); format: in vitro ADME; conditions: pH 1.5, 1 g pepsin per 100 mL, 37° C., 2 hours
T1 construct: purchased Sigma-Aldrich Company Ltd
T1 sequence (P00791 60-385): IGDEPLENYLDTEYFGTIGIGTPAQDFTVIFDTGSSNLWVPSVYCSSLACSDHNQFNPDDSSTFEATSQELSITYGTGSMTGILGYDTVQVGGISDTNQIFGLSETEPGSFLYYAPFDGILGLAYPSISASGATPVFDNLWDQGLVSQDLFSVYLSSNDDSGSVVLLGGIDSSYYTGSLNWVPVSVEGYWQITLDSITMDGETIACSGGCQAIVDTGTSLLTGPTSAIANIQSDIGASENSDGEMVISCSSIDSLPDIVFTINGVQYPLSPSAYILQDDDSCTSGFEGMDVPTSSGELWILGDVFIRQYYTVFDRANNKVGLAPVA
Experimental: (§1) Polypeptides were subject to enzymatic hydrolysis in simulated gastric and simulated intestinal fluids, respectively, to verify whether the polypeptides were resistance to the enzymatic hydrolysis of digestive enzymes. Control experiments were performed with albumin.
Preparation of simulated gastric fluid: water was added to diluted hydrochloric acid with a concentration of 1 mol/L, to adjust the pH to 1.5. 1 g pepsin per 100 mL solution was added, and after homogeneously mixing, the solution was filtered through a 0.22 μm sterile filter for use.
(§2) 10 μL of the polypeptide solution (10 mg/mL) was added to the simulated gastric fluid (1 mL) and simulated intestinal fluid (1 mL), respectively, and after homogeneously mixing, the mixtures were incubated in a water bath at 37° C. for 2 hours.
(§3) 1 mg of dried albumin powder was added to the simulated gastric fluid (1 mL) and simulated intestinal fluid (1 mL), respectively, and after homogeneously mixing, the mixtures were incubateed in a water bath at 37° C. for 2 hours.
(§4) The above enzymatic mixtures were detected by using HPLC.
(§5) Chromatographic conditions: mobile phase, water (containing 0.1% TFA)+acetonitrile (containing 0.1% TFA), gradient elution from 15% to 50% acetonitrile for 25 min, flow rate of 1 mL/min, detection wavelength of 214 nm, injection volume of 20 ul.

trypsin = assay: Stability against trypsin in simulated intestinal fluid, HPLC (Example 16); format: in vitro ADME; conditions: pH 6.8, 1 g trypsin per 100 mL, 37° C., 2 hours
Experimental: as §1
Preparation of simulated intestinal fluid: 6.8 g of potassium dihydrogen phosphate was dissolved in 500 mL water, 0.4% (w/w) NaOH was added to adjust the pH to 6.8, and water was added to make up 1 L. 1 g trypsin per 100 mL solution was added, and after homogeneously mixing, the solution was filtered through a 0.22 μm sterile filter for use.
as §2, §3, §4, §5

Substance: ASCNGVCSPFEMPPCGSSACRCIPVGLVVGYCRHPSG (listed as Pisum sativum) [SEQ ID No. 72, extracted polypeptide with H at position 34, outside general formula (I); raised blood glucose]
- Blood glucose level at 15 min after administration (normal mice [1]): 8.91 ± 0.7 mmol/L
- Blood glucose level at 30 min after administration (normal mice [1]): 10.4 ± 0.8 mmol/L
- Blood glucose level prior to administration (normal mice [1]): 7.3 ± 0.6 mmol/L
- hypoglycemic activity (conclusion) (normal mice [1]; normal mice, subcutaneous injection): no hypoglycemic activity

Substance: ASCNGVCSPFEMPPCGSSACRCIPVGLVVGYCRNPSG (disulfide 15-32, 3-20, 7-22) [SEQ ID No. 26]
- Blood glucose level at 15 min after administration (normal mice [2]): 5.3 ± 0.4 mmol/L
- Blood glucose level at 30 min after administration (normal mice [2]): 4.6 ± 0.3 mmol/L
- Blood glucose level at 45 min after administration (normal mice [2]): 3.2 ± 0.2 mmol/L
- Blood glucose level at 60 min after administration (normal mice [2]): 2.1 ± 0.2 mmol/L
- Blood glucose level prior to administration (normal mice [2]; baseline): 6.8 ± 0.3 mmol/L
- Blood glucose level at 15 min after administration (normal mice [1]): 5.3 ± 0.4 mmol/L
- Blood glucose level at 30 min after administration (normal mice [1]): 4.4 ± 0.3 mmol/L
- Blood glucose level prior to administration (normal mice [1]): 7.1 ± 0.5 mmol/L

Substance: Insulin
- Blood glucose level at 15 min after administration (normal mice [3]): 5.2 ± 0.4 mmol/L
- Blood glucose level at 30 min after administration (normal mice [3]): 3.6 ± 0.3 mmol/L
- Blood glucose level at 45 min after administration (normal mice [3]): 2.7 ± 0.4 mmol/L
- Blood glucose level at 60 min after administration (normal mice [3]): 2.2 ± 0.2 mmol/L
- Blood glucose level prior to administration (normal mice [3]; baseline): 7.7 ± 0.6 mmol/L
- Blood glucose level at 15 min after administration [4]: 11.1 ± 0.9 mmol/L
- Blood glucose level at 30 min after administration [4]: 9.6 ± 0.7 mmol/L
- Blood glucose level at 45 min after administration [4]: 7.3 ± 0.8 mmol/L
- Blood glucose level at 60 min after administration [4]: 5.2 ± 0.4 mmol/L
- Blood glucose level prior to administration ([4]; baseline): 13.4 ± 1.1 mmol/L
- Blood glucose level at 15 min after administration [5]: 8.8 ± 0.8 mmol/L
- Blood glucose level at 30 min after administration [5]: 7.1 ± 0.7 mmol/L
- Blood glucose level at 45 min after administration [5]: 6.4 ± 0.5 mmol/L
- Blood glucose level at 60 min after administration [5]: 5.0 ± 0.4 mmol/L
- Blood glucose level prior to administration ([5]; baseline): 11.6 ± 1.1 mmol/L
- Blood glucose level at 15 min after administration [6]: 8.5 ± 0.7 mmol/L
- Blood glucose level at 30 min after administration [6]: 7.5 ± 0.4 mmol/L
- Blood glucose level at 45 min after administration [6]: 6.1 ± 0.4 mmol/L
- Blood glucose level at 60 min after administration [6]: 4.8 ± 0.3 mmol/L
- Blood glucose level prior to administration ([6]; baseline): 14.3 ± 0.9 mmol/L

Substance: Albumin: Serum albumin (bovine) standard
- enzymatic hydrolysis in simulated gastric fluid (pepsin): completely enzymatically hydrolyzed
- enzymatic hydrolysis in simulated intestinal fluid (trypsin): completely enzymatically hydrolyzed
